| SMILES | melting point [°C] |
| --- | --- |
| N#CCC(=O)N[C@H]1CC[C@H](CCN2CCN(c3ccc(C(F)(F)F)cc3)CC2)CC1 [Example 274, 2-Cyano-N-(4-{2-[4-(4-trifluoromethylphenyl)piperazin-1-yl]ethyl}cyclohexyl)acetamide] | 240 |
| N#CCCCC(=O)N[C@H]1CC[C@H](CCN2CCN(c3ccccc3F)CC2)CC1 [Example 204, 4-Cyano-N-(4-{2-[4-(2-fluorophenyl)piperazin-1-yl]ethyl}cyclohexyl)butanamide] | 170 |
| N#CCC(=O)N[C@H]1CC[C@H](CCN2CCN(c3cccc(Cl)c3Cl)CC2)CC1 [Example 143, 2-Cyano-N-(4-{2-[4-(2,3-dichlorophenyl)piperazin-1-yl]ethyl}cyclohexyl)acetamide] | 188 |
| N#Cc1cccc(C2=CCN(CC[C@H]3CC[C@H](NC(=O)CCC(F)(F)F)CC3)CC2)c1 | 177 |
| COC(C)(C)C(=O)N[C@H]1CC[C@H](CCN2CCN(c3cccc(C(F)(F)F)c3)CC2)CC1 [Example 77, 2-Methoxy-2-methyl-N-(4-{2-[4-(3-trifluoromethylphenyl)-piperazin-1-yl]ethyl}cyclohexyl)-propanamide] | 105 |
| Cc1cccc(N2CCN(CC[C@H]3CC[C@H](NC(=O)CC#N)CC3)CC2)c1C#N [Example 114, 2-Cyano-N-(4-{2-[4-(2-cyano-3-methylphenyl)piperazin-1-yl]ethyl}cyclohexyl)acetamide] | 221 |
| Cc1cc(C)cc(C2=CCN(CC[C@H]3CC[C@@H](NC(=O)CC#N)CC3)CC2)c1.Cl | 220 |
| COCCCC(=O)N[C@H]1CC[C@H](CCN2CCN(c3cccc(C)c3)CC2)CC1 [Example 675, 4-Methoxy-N-{4-[2-(4-m-tolylpiperazin-1-yl)ethyl]cyclohexyl}butanamide] | 148 |
| COCCCC(=O)N[C@H]1CC[C@H](CCN2CCN(c3ccc(F)c(C(F)(F)F)c3)CC2)CC1 [Example 754, N-(4-{2-[4-(4-Fluoro-3-trifluoromethylphenyl)piperazin-1-yl]ethyl}cyclohexyl)-4-methoxybutanamide] | 177 |
| CCC(=O)C(=O)N1CCC(CCN2CCN(c3cccc4c3CCC4)CC2)CC1.Cl | 202 |
| N#CCCCC(=O)N[C@H]1CC[C@H](CCN2CCN(c3cc(C#N)ccc3Cl)CC2)CC1 [Example 601, N-(4-{2-[4-(2-Chloro-5-cyanophenyl)piperazin-1-yl]ethyl}cyclohexyl)-4-cyanobutanamide] | 206 |
| N#CCCC(=O)N[C@H]1CC[C@H](CCN2CCN(c3ccc(Cl)c(Cl)c3F)CC2)CC1 [Example 720, 3-Cyano-N-(4-{2-[4-(3,4-dichloro-2-fluorophenyl)piperazin-1-yl]ethyl}cyclohexyl)propanamide] | 210 |
| N#CCCC(=O)N[C@H]1CC[C@H](CCN2CCN(c3ccccc3F)CC2)CC1 [Example 266, 3-Cyano-N-(4-{2-[4-(2-fluorophenyl)piperazin-1-yl]ethyl}cyclohexyl)propanamide] | 164 |
| Cc1ccc(N2CCN(CC[C@H]3CC[C@H](NC(=O)CC#N)CC3)CC2)cc1 [Example 242, 2-Cyano-N-{4-[2-(4-p-tolylpiperazin-1-yl)ethyl]cyclohexyl}acetamide] | 237 |
| N#CCCCC(=O)N[C@H]1CC[C@H](CCN2CCN(c3ccc(F)c(C#N)c3)CC2)CC1 [Example 662, 4-Cyano-N-(4-{2-[4-(3-cyano-4-fluorophenyl)piperazin-1-yl]ethyl}cyclohexyl)butanamide] | 158 |
| COCCCC(=O)N[C@H]1CC[C@H](CCN2CCN(c3cccc(F)c3)CC2)CC1 [Example 419, N-(4-{2-[4-(3-Fluorophenyl)piperazin-1-yl]ethyl}cyclohexyl)-4-methoxybutanamide] | 165 |
| CS(=O)(=O)c1cccc(N2CCN(CC[C@H]3CC[C@H](NC(=O)CC(F)(F)F)CC3)CC2)c1 [Example 452, 3,3,3-Trifluoro-N-(4-{2-[4-(3-methanesulfonylphenyl)piperazin-1-yl]ethyl}cyclohexyl)-propanamide] | 173 |
| COCCCC(=O)N[C@H]1CC[C@H](CCN2CC=C(c3cccc(C(F)(F)F)c3)CC2)CC1 | 145 |
| CCOCC(=O)N[C@H]1CC[C@H](CCN2CCN(c3ccc(Cl)c(Cl)c3)CC2)CC1 [Example 487, N-(4-{2-[4-(3,4-Dichlorophenyl)piperazin-1-yl]ethyl}cyclohexyl)-2-ethoxyacetamide] | 112 |
| Cc1ccc(N2CCN(CC[C@H]3CC[C@H](NC(=O)CC(F)(F)F)CC3)CC2)cc1 [Example 493, 3,3,3-Trifluoro-N-{4-[2-(4-p-tolylpiperazin-1-yl)ethyl]cyclohexyl}propanamide] | 217 |
| CC(=O)CN1CCC(CCN2CCN(c3ccc(C(F)(F)F)cc3F)CC2)CC1.Cl.Cl | 278 to 279 |
| CC(=O)CN1CCC(CCN2CCN(c3cccc(Cc4ccccc4)c3)CC2)CC1.Cl.Cl | 253 |
| CCOCC(=O)N[C@H]1CC[C@H](CCN2CCN(c3ccc(C)c(Cl)c3)CC2)CC1.Cl | 162 |
| N#CCCCC(=O)N[C@H]1CC[C@H](CCN2CCN(c3ccc4c(c3)OCO4)CC2)CC1 [Example 365, N-{4-[2-(4-Benzo[1,3]dioxol-5-ylpiperazin-1-yl)ethyl]cyclohexyl}-4-cyanobutanamide] | 189 |
| CCOCC(=O)N[C@H]1CC[C@H](CCN2CCN(c3ccccc3F)CC2)CC1 [Example 56, 2-Ethoxy-N-(4-{2-[4-(2-fluorophenyl)piperazin-1-yl]ethyl}cyclohexyl)acetamide] | 117 to 118 |

| SMILES | melting point [°C] |
| --- | --- |
| CC(=O)CN1CCC(CCN2CC=C(c3cc(F)cc(C(F)(F)F)c3)CC2)CC1.Cl.Cl | 287 |
| CN(C)c1cccc(N2CCN(CC[C@H]3CC[C@H](NC(=O)CC#N)CC3)CC2)c1 [Example 150, 2-Cyano-N-(4-{2-[4-(3-dimethylaminophenyl)piperazin-1-yl]ethyl}cyclohexyl)acetamide] | 177 |
| N#CCCCC(=O)N[C@H]1CC[C@H](CCN2CCN(c3cccc(Cl)c3Cl)CC2)CC1 [Example 210, 4-Cyano-N-(4-{2-[4-(2,3-dichlorophenyl)piperazin-1-yl]ethyl}cyclohexyl)butanamide] | 192 |
| CC(=O)CN1CCC(CCN2CCN(c3ccc(F)c(C#N)c3)CC2)CC1 [Example 659, 2-Fluoro-5-(4-{2-[1-(2-oxopropyl)piperidin-4-yl]ethyl}piperazin-1-yl)benzonitrile] | 102 |
| O=C(N[C@H]1CC[C@H](CCN2CCN(c3ccc(F)cc3)CC2)CC1)C1=CCCC1 [Example 431, Cyclopent-1-enecarboxylic acid (4-{2-[4-(4-fluorophenyl)-piperazin-1-yl]ethyl}cyclohexyl) amide] | 227 |
| COCCCC(=O)N[C@H]1CC[C@H](CCN2CC=C(c3cccc(C#N)c3)CC2)CC1 | 178 |
| O=C(CC(F)(F)F)N[C@H]1CC[C@H](CCN2CCN(c3cccc4ncccc34)CC2)CC1 [Example 320, 3,3,3-Trifluoro-N-{4-[2-(4-quinolin-5-ylpiperazin-1-yl)ethyl]cyclohexyl}propanami-de] | 207 |
| CC(=O)CN1CCC(CCN2CCc3cc(C#N)ccc3C2)CC1.Cl.Cl | 249 |
| CC(=O)CN1CCC(CCN2CCN(c3ccc(Cl)c(C(F)(F)F)c3)CC2)CC1.Cl.Cl | 263 |
| CNC(=O)C[C@H]1CC[C@H](CCN2CCN(c3ccccc3F)CC2)CC1 [Example 300, 2-(4-{2-[4-(2-Fluorophenyl)-piperazin-1-yl]ethyl}cyclohexyl)-N-methylacetamide] | 165 to 166 |
| CC(=O)CN1CCC(CCN2CCN(c3cccc(C(F)(F)F)c3C)CC2)CC1.Cl.Cl | 300 |
| N#CCC(=O)N[C@H]1CC[C@H](CCN2CCN(c3cc(F)cc(Cl)c3)CC2)CC1 [Example 181, N-(4-{2-[4-(3-Chloro-5-fluorophenyl)piperazin-1-yl]ethyl}cyclohexyl)-2-cyanoacetamide] | 181 to 183 |
| CS(=O)(=O)Nc1cccc(N2CCN(CC[C@H]3CC[C@H](NC(=O)CC#N)CC3)CC2)c1 [Example 240, 2-Cyano-N-(4-{2-[4-(3-methanesulfonylaminophenyl)piperazin-1-yl]ethyl}cyclohexyl)-acetamide] | 194 |
| N#CCC(=O)N[C@H]1CC[C@H](CCN2CC=C(c3cc(C(F)(F)F)ccc3F)CC2)CC1 | 168 |
| CON(C)C(=O)CN1CCC(CCN2CCN(c3cccc(C)c3C)CC2)CC1 [Example 772, 2-(4-{2-[4-(2,3-dimethylphenyl)piperazin-1-yl]ethyl}piperidin-1-yl)-N-methoxy-N-methylacetamide] | 66 |
| CC(=O)CN1CCC(CCN2CCN(c3cc(F)c(F)c(F)c3F)CC2)CC1.Cl.Cl | 235 |
| N#CCC(=O)N[C@H]1CC[C@H](CCN2CCN(c3cccc(F)c3)CC2)CC1 [Example 133] | 202 |
| N#CCCC(=O)N[C@H]1CC[C@H](CCN2CCN(c3cccc(C#N)c3)CC2)CC1 [Example 644, 3-Cyano-N-(4-{2-[4-(3-cyanophenyl)piperazin-1-yl]ethyl}cyclohexyl)propanamide] | 160 |
| CCc1ccccc1N1CCN(CCC2CCN(CC(C)=O)CC2)CC1.Cl.Cl | 291 |
| Cl.Cl.NC(=O)CN1CCC(CCN2CCN(c3cccc(C(F)(F)F)c3)CC2)CC1 | 120 |
| CCc1ccccc1C1=CCN(CC[C@H]2CC[C@H](NC(=O)CCCC#N)CC2)CC1 | 120 |
| N#CCCCC(=O)N[C@H]1CC[C@H](CCN2CCN(c3cccc4ncccc34)CC2)CC1 [Example 321, 4-Cyano-N-{4-[2-(4-quinolin-5-ylpiperazin-1-yl)ethyl]cyclohexyl}butanamide] | 155 |
| N#CCC(=O)N[C@H]1CC[C@H](CCN2CCN(c3ccccc3F)CC2)CC1 [Example 79, 2-Cyano-N-(4-{2-[4-(2-fluorophenyl)piperazin-1-yl]ethyl}cyclohexyl)acetamide] | 179 to 180 |
| CCc1ccccc1C1=CCN(CC[C@H]2CC[C@H](NC(=O)CC#N)CC2)CC1 | 158 |
| CC(=O)CN1CCC(CCN2CCN(c3cccc(C(C)(F)F)c3)CC2)CC1.Cl.Cl | 256 |
